The results in this text go back to patent US9358247B2, “Methods and compositions for promoting activity of anti-cancer therapies” (Oncology Research International Limited, priority 2006, dated 2016).

By IC50 is commonly meant the concentration needed to halve the response being measured.

Format in all cases: cell-based, human
The subject of one assay is A549 cell line. The assay can be described thus: Cancer cell growth inhibition, SRB dye assay (single agents and 50:50 IC50 mixtures). Conditions: Homo sapiens, 144 h, Example 4, value used to make up 50:50 IC50 mixtures, read-out: IC50 values used in assay. The method, then:
Cancer cells were seeded the day before application of drug in triplicate or quadruplicate in 96-well plates, allowed to grow in the presence of drug for 6 days before cell growth relative to untreated control wells was determined with a dye assay.
Cells were seeded in triplicate or quadruplicate at 3-4,000 per microtitre well in 90 μl of RPMI culture medium/10% foetal calf serum/penicillin, streptomycin mix, treated with 10 μl of drug (prepared in a dilution plate at 10× concentration required), and allowed to grow until the controls were nearly confluent (6 days).
SRB: Plates were washed with PBS, fixed with methylated spirits, washed with tap water and stained with 50 μL/well of SRB solution (sulforhodamine, 0.4% in 1% acetic acid), followed by washing with tap water and 1% acetic acid, solubilisation in Tris and absorbance read at 564 nm in an ELISA reader.
Data was collected using ELISA plate reader software—SOFTmax PRO3.1.2, then imported into EXCEL. The mean and SD of replicates were calculated as a % of control, after subtraction of the blank value (wells with no cells). A graph was plotted of % control vs dose of agent and IC50 (half maximal inhibitory concentration) values determined.
(§1) Tumour cells were seeded in duplicate in 96-well plates at 2-5,000 per microtitre well containing RPMI culture medium/10% foetal calf serum. The cells were allowed to grow until the controls were nearly confluent after 5-6 days. Plates were then washed with PBS, fixed in ethanol and stained with 50 μL/well of SRB solution (sulforhodamine, 0.4% in 1% acetic acid), followed by washing with 1% acetic acid and solubilisation in Tris. The absorbance was read at 564 nm using an ELISA reader.
(§2) The IC50, or concentration required to inhibit cell growth by 50%, was determined from the percentage inhibition versus concentration data using the probit calculation methods of Finney (Finney D J (1971). Probit Analysis. 3rd Edition. Cambridge University Press).
The inhibitory data from each mixture was used to determine an IC50 of IC50 value, where the concentrations used were the Multiplying Factor values. In order to determine the actual IC50 contribution of each component in the two-component mixture, the IC50 of IC50 value was multiplied by the IC50 of the individual component. This can then be used to determine the reduction in IC50 contribution (ie, reduction in dose) of the chemotherapeutic agent due to the presence of the steroid saponin in the mixture. A simpler way of determining the reduction in dose is to use the following simple formula: […]
For orientation: In SRB staining, fixed cells bind dye roughly in proportion to their protein.

Another assay has as its system LNCap cell line. Described as above.
The subject of assay [1] is PC3, DU145, A549 and HT29 cell lines. The assay is described as follows: Cancer cell growth inhibition, IC50 values used in assay for four cell lines (Example 5). Particulars: Homo sapiens, value used to make up 50:50 IC50 mixtures. The method, then: as §1, §2
The cell seeding and ELISA plate methodology of Example 2 were used for determining inhibition of four cancer cell lines. IC50 values were determined for the steroid saponins dioscin, deltonin and prosapogenin A, and their mixtures with cisplatin, docetaxel, doxorubicin and vincristine, using PC3, DU145, A549 and HT29 cell lines.

As for `C[C@@H]1CC[C@@]2(OC1)O[C@H]1C[C@H]3[C@@H]4CC=C5C[C@@H](O[C@@H]6O[C@H](CO)[C@@H](O[C@@H]7O[C@H](CO)[C@@H](O)[C@H](O)[C@H]7O)[C@H](O)[C@H]6O[C@@H]6O[C@@H](C)[C@H](O)[C@@H](O)[C@H]6O)CC[C@]5(C)[C@H]4CC[C@]3(C)[C@H]1[C@@H]2C` [Deltonin, diosgenin Rha2, [Glc4], Glc], the IC50 stood at 1000 nM in the assay with A549 cell line; 1000 nM in the assay with LNCap cell line (Homo sapiens, 144 h, Example 3, value used to make up 50:50 IC50 mixtures, read-out: IC50 values used in assay); 1000 nM in assay [1]. Further, the “Vincristine Dose Reduction” value in the assay with LNCap cell line (50:50 IC50 mixture vs vincristine alone, Example 3) is listed as “consistent reduction in dosage”.
